Laboratory results: patent publication US20120029187A1, “HALOALKYLSULFONANILIDE DERIVATIVE” (Nissan Chemical Industries, Ltd., priority 2009, published 2012)

Columns and labels:
Assay type in all cases: in vivo
barnyardgrass [1] = assay: Test Example 1: herbicidal effects in preemergence treatment under submerged conditions; conditions: dose 2.52 g/a
Outline: (§1)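 Score 0–5 by mortality (5: ≥90%; 0: <5%), read 3 weeks post-application. Paddy-type cups: alluvial soil under 4 cm water, weeds seeded plus transplanted 2.5-leaf rice; diluted EC dosed onto water surface same day as sowing, g/a basis; greenhouse 25 to 30° C.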

bulrush [2] = assay: as above; conditions: dose 2.52 g/a
Outline: as §1

ducksalad [3] = assay: as above; conditions: dose 2.52 g/a
Outline: as §1

barnyardgrass [4] = assay: Test Example 2: herbicidal effects during the vegetation period under submerged conditions; conditions: treatment during the vegetation period under submerged conditions; dose 2.52 g/a
Outline: (§2)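 Barnyardgrass, bulrush and ducksalad were co-sown in alluvial soil flooded to 4 cm and grown in a greenhouse at 25 to 30° C. At the 1- or 2-leaf stage, water-diluted emulsifiable concentrates went onto the water surface at set doses (g/a). Herbicidal effect was scored three weeks later on a graded scale.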

bulrush [5] = assay: as above; conditions: treatment during the vegetation period under submerged conditions; dose 2.52 g/a
Outline: as §2

ducksalad [6] = assay: as above; conditions: treatment during the vegetation period under submerged conditions; dose 2.52 g/a
Outline: as §2

transplanted rice = assay: Test Example 1: preemergence treatment under submerged conditions, effect on crop; conditions: dose 2.52 g/a
Outline: as §1

posumbu knotweed [7] = assay: Test Example 3: herbicidal effects in soil treatment; conditions: dose 3.2 g/a
Outline: (§3)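 Seeds were sown in sterilized diluvial soil and covered with about 1.5 cm of soil. Compounds, formulated as emulsifiable concentrates and diluted with water, were sprayed evenly over the soil surface at set doses in g/a. Herbicidal effect was scored on a rating scale three weeks later.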

large crabgrass [8] = assay: as above; conditions: dose 3.2 g/a
Outline: as §3

water foxtail [9] = assay: as above; conditions: dose 3.2 g/a
Outline: as §3

barnyardgrass [10] = assay: as above; conditions: dose 3.2 g/a
Outline: as §3

velvetleaf [11] = assay: as above; conditions: dose 3.2 g/a
Outline: as §3

redroot pigweed [12] = assay: as above; conditions: dose 3.2 g/a
Outline: as §3

Italian ryegrass [13] = assay: as above; conditions: dose 3.2 g/a
Outline: as §3

common lambsquater [14] = assay: as above; conditions: dose 3.2 g/a
Outline: as §3

common ragweed [15] = assay: as above; conditions: dose 3.2 g/a
Outline: as §3

giant foxtail [16] = assay: as above; conditions: dose 3.2 g/a
Outline: as §3

common chickweed [17] = assay: as above; conditions: dose 3.2 g/a
Outline: as §3

posumbu knotweed [18] = assay: Test Example 4: herbicidal effect in foliage treatment; conditions: dose 3.2 g/a, three weeks after application
Outline: (§4)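 A uniform foliar spray of emulsifiable concentrate, diluted with water to give the stated g/a dose, was applied to plants raised for 14 days from seed in sterilized diluvial soil at 25 to 30° C. Herbicidal effects were scored three weeks later.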

large crabgrass [19] = assay: as above; conditions: dose 3.2 g/a, three weeks after application
Outline: as §4

water foxtail [20] = assay: as above; conditions: dose 3.2 g/a, three weeks after application
Outline: as §4

barnyardgrass [21] = assay: as above; conditions: dose 3.2 g/a, three weeks after application
Outline: as §4

velvetleaf [22] = assay: as above; conditions: dose 3.2 g/a, three weeks after application
Outline: as §4

redroot pigweed [23] = assay: as above; conditions: dose 3.2 g/a, three weeks after application
Outline: as §4

Italian ryegrass [24] = assay: as above; conditions: dose 3.2 g/a, three weeks after application
Outline: as §4

common lambsquater [25] = assay: as above; conditions: dose 3.2 g/a, three weeks after application
Outline: as §4

beadstraw = assay: as above; conditions: dose 3.2 g/a, three weeks after application
Outline: as §4

common ragweed [26] = assay: as above; conditions: dose 3.2 g/a, three weeks after application
Outline: as §4

giant foxtail [27] = assay: as above; conditions: dose 3.2 g/a, three weeks after application
Outline: as §4

common chickweed [28] = assay: as above; conditions: dose 3.2 g/a, three weeks after application
Outline: as §4

| Structure (SMILES) | A: barnyardgrass, herbicidal effect (evaluation scale 0-5) (barnyardgrass [1]) | B: bulrush, herbicidal effect (evaluation scale 0-5) (bulrush [2]) | C: ducksalad, herbicidal effect (evaluation scale 0-5) (ducksalad [3]) | A: barnyardgrass, herbicidal effect (evaluation scale 0-5) (barnyardgrass [4]) | B: bulrush, herbicidal effect (evaluation scale 0-5) (bulrush [5]) | C: ducksalad, herbicidal effect (evaluation scale 0-5) (ducksalad [6]) | a: transplanted rice, effect on crop (evaluation scale 0-5) (transplanted rice) | M: posumbu knotweed, herbicidal effect (evaluation scale 0-5) (posumbu knotweed [7]) | D: large crabgrass, herbicidal effect (evaluation scale 0-5) (large crabgrass [8]) | G: water foxtail, herbicidal effect (evaluation scale 0-5) (water foxtail [9]) | A: barnyardgrass, herbicidal effect (evaluation scale 0-5) (barnyardgrass [10]) | I: velvetleaf, herbicidal effect (evaluation scale 0-5) (velvetleaf [11]) | K: redroot pigweed, herbicidal effect (evaluation scale 0-5) (redroot pigweed [12]) | H: Italian ryegrass, herbicidal effect (evaluation scale 0-5) (Italian ryegrass [13]) | L: common lambsquater, herbicidal effect (evaluation scale 0-5) (common lambsquater [14]) | J: common ragweed, herbicidal effect (evaluation scale 0-5) (common ragweed [15]) | E: giant foxtail, herbicidal effect (evaluation scale 0-5) (giant foxtail [16]) | N: common chickweed, herbicidal effect (evaluation scale 0-5) (common chickweed [17]) | M: posumbu knotweed, herbicidal effect (posumbu knotweed [18]) | D: large crabgrass, herbicidal effect (large crabgrass [19]) | also measured |
| --- | --- | --- | --- | --- | --- | --- | --- | --- | --- | --- | --- | --- | --- | --- | --- | --- | --- | --- | --- | --- | --- |
| CCOC(=O)N(c1ccccc1CN1COC(C)(CC(F)(F)F)CC1=O)S(=O)(=O)C(F)(F)F (stereo not drawn) [II-53] | 5 (mortality of 90% or above (nearly complete death)) | 5 (mortality of 90% or above (nearly complete death)) | 5 (mortality of 90% or above (nearly complete death)) | 5 (mortality of 90% or above (nearly complete death)) | 5 (mortality of 90% or above (nearly complete death)) | 5 (mortality of 90% or above (nearly complete death)) | 0 (mortality of less than 5% (almost ineffective)) | 5 (mortality of 90% or above (nearly complete death)) | 5 (mortality of 90% or above (nearly complete death)) | 5 (mortality of 90% or above (nearly complete death)) | 5 (mortality of 90% or above (nearly complete death)) | 5 (mortality of 90% or above (nearly complete death)) | 0 (mortality of less than 5% (almost ineffective)) | 3 (mortality of at least 40% and less than 70%) | 0 (mortality of less than 5% (almost ineffective)) | 4 (mortality of at least 70% and less than 90%) | 5 (mortality of 90% or above (nearly complete death)) | 5 (mortality of 90% or above (nearly complete death)) | 4 (mortality of at least 70% and less than 90%) | 3 (mortality of at least 40% and less than 70%) | G: water foxtail, herbicidal effect (water foxtail [20]): 5 (mortality of 90% or above (nearly complete death)); A: barnyardgrass, herbicidal effect (barnyardgrass [21]): 4 (mortality of at least 70% and less than 90%); I: velvetleaf, herbicidal effect (velvetleaf [22]): 4 (mortality of at least 70% and less than 90%); K: redroot pigweed, herbicidal effect (redroot pigweed [23]): 0 (mortality of less than 5% (almost ineffective)); H: Italian ryegrass, herbicidal effect (Italian ryegrass [24]): 4 (mortality of at least 70% and less than 90%); L: common lambsquater, herbicidal effect (common lambsquater [25]): 2 (mortality of at least 20% and less than 40%); O: beadstraw, herbicidal effect (beadstraw): 5 (mortality of 90% or above (nearly complete death)); J: common ragweed, herbicidal effect (common ragweed [26]): 3 (mortality of at least 40% and less than 70%); E: giant foxtail, herbicidal effect (giant foxtail [27]): 3 (mortality of at least 40% and less than 70%); N: common chickweed, herbicidal effect (common chickweed [28]): 5 (mortality of 90% or above (nearly complete death)) |
| COCC1(C)CC(=O)N(Cc2ccccc2NS(=O)(=O)C(F)(F)F)CO1 (stereo not drawn) [II-54] | 5 (mortality of 90% or above (nearly complete death)) | 5 (mortality of 90% or above (nearly complete death)) | 5 (mortality of 90% or above (nearly complete death)) | 5 (mortality of 90% or above (nearly complete death)) | 5 (mortality of 90% or above (nearly complete death)) | 5 (mortality of 90% or above (nearly complete death)) | 0 (mortality of less than 5% (almost ineffective)) | 5 (mortality of 90% or above (nearly complete death)) | 5 (mortality of 90% or above (nearly complete death)) | 5 (mortality of 90% or above (nearly complete death)) | 5 (mortality of 90% or above (nearly complete death)) | 5 (mortality of 90% or above (nearly complete death)) | 3 (mortality of at least 40% and less than 70%) | 5 (mortality of 90% or above (nearly complete death)) | 3 (mortality of at least 40% and less than 70%) | 4 (mortality of at least 70% and less than 90%) | 5 (mortality of 90% or above (nearly complete death)) | 5 (mortality of 90% or above (nearly complete death)) | 2 (mortality of at least 20% and less than 40%) | 4 (mortality of at least 70% and less than 90%) | G: water foxtail, herbicidal effect (water foxtail [20]): 5 (mortality of 90% or above (nearly complete death)); A: barnyardgrass, herbicidal effect (barnyardgrass [21]): 5 (mortality of 90% or above (nearly complete death)); I: velvetleaf, herbicidal effect (velvetleaf [22]): 5 (mortality of 90% or above (nearly complete death)); K: redroot pigweed, herbicidal effect (redroot pigweed [23]): 1 (mortality of at least 5% and less than 20%); H: Italian ryegrass, herbicidal effect (Italian ryegrass [24]): 5 (mortality of 90% or above (nearly complete death)); L: common lambsquater, herbicidal effect (common lambsquater [25]): 2 (mortality of at least 20% and less than 40%); O: beadstraw, herbicidal effect (beadstraw): 4 (mortality of at least 70% and less than 90%); J: common ragweed, herbicidal effect (common ragweed [26]): 4 (mortality of at least 70% and less than 90%); E: giant foxtail, herbicidal effect (giant foxtail [27]): 5 (mortality of 90% or above (nearly complete death)); N: common chickweed, herbicidal effect (common chickweed [28]): 4 (mortality of at least 70% and less than 90%) |
